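Where inhibition never reached the appropriate level, the endpoint shown equals the highest concentration tested. Otherwise, values were interpolated linearly from a five-concentration, 48-hour dose response in 96-well plates. At the GI50, growth is halved.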 Calls of active or inactive are those of the source. Cut-off read from the data, not from the text of the source: active = GI50 up to about 1.1 µM and inactive = higher.
Assays:
Test in all cases: DTP human tumour cell line panel, 48 h
[1] = tested on: DU-145
[2] = tested on: OVCAR-5
[3] = tested on: SF-295
[4] = tested on: Malme-3M
[5] = tested on: SNB-19
[6] = tested on: MDA-MB-435
[7] = tested on: NCI/ADR-RES
[8] = tested on: HCC 2998
[9] = tested on: NCI-H460
[10] = tested on: RXF 393
[11] = tested on: U-251
[12] = tested on: UO-31
[13] = tested on: NCI-H522
[14] = tested on: TK-10
[15] = tested on: SF-268
[16] = tested on: A549
[17] = tested on: KM12
[18] = tested on: K562
[19] = tested on: OVCAR-8
[20] = tested on: MOLT-4
[21] = tested on: MDA-N
[22] = tested on: Hs-578T
[23] = tested on: BT-549
[24] = tested on: HOP-62
[25] = tested on: COLO 205
[26] = tested on: SK-MEL-28
[27] = tested on: 786-0
[28] = tested on: OVCAR-4
[29] = tested on: HCT-116
[30] = tested on: PC-3
[31] = tested on: HCT-15
[32] = tested on: T47D
[33] = tested on: HOP-92
[34] = tested on: NCI-H226
[35] = tested on: SNB-75
[36] = tested on: HT-29
[37] = tested on: M14
[38] = tested on: HL-60
[39] = tested on: SK-MEL-2
[40] = tested on: SW-620
[41] = tested on: RPMI-8226
[42] = tested on: SK-MEL-5
[43] = tested on: CCRF-CEM
[44] = tested on: SF-539
[45] = tested on: SR
[46] = tested on: LOX IMVI
[47] = tested on: NCI-H23
[48] = tested on: OVCAR-3
[49] = tested on: UACC-257
[50] = tested on: MCF7
[51] = tested on: IGROV-1
[52] = tested on: SN12C
[53] = tested on: UACC-62
[54] = tested on: A498
[55] = tested on: ACHN
[56] = tested on: EKVX
[57] = tested on: MDA-MB-231
[58] = tested on: SK-OV-3
[59] = tested on: KM-20L2
[60] = tested on: LXFL 529
[61] = tested on: CAKI-1
[62] = tested on: DMS-114
[63] = tested on: DMS-273
[64] = tested on: SNB-78

## O=[N+]([O-])c1ccc2nc(O)n[n+]([O-])c2c1
[1]
  GI50: > 100 µM (inactive)
[2]
  GI50: > 100 µM (inactive)
[3]
  GI50: > 100 µM (inactive)
[4]
  GI50: > 100 µM (inactive)
[5]
  GI50: > 100 µM (inactive)
[6]
  GI50: > 100 µM (inactive)
[7]
  GI50: > 100 µM (inactive)
[8]
  GI50: > 100 µM (inactive)
[9]
  GI50: > 100 µM (inactive)
[10]
  GI50: > 100 µM (inactive)
[11]
  GI50: > 100 µM (inactive)
[12]
  GI50: > 100 µM (inactive)
[13]
  GI50: > 100 µM (inactive)
[14]
  GI50: > 100 µM (inactive)
[15]
  GI50: > 100 µM (inactive)
[16]
  GI50: > 100 µM (inactive)
[17]
  GI50: > 100 µM (inactive)
[18]
  GI50: > 100 µM (inactive)
[19]
  GI50: > 100 µM (inactive)
[20]
  GI50: > 100 µM (inactive)
[21]
  GI50: > 100 µM (inactive)
[22]
  GI50: > 100 µM (inactive)
[23]
  GI50: > 100 µM (inactive)
[24]
  GI50: > 100 µM (inactive)
[25]
  GI50: > 100 µM (inactive)
[26]
  GI50: > 100 µM (inactive)
[27]
  GI50: > 100 µM (inactive)
[28]
  GI50: > 100 µM (inactive)
[29]
  GI50: > 100 µM (inactive)
[30]
  GI50: > 100 µM (inactive)
[31]
  GI50: > 100 µM
[32]
  GI50: > 100 µM (inactive)
[33]
  GI50: > 100 µM (inactive)
[34]
  GI50: > 100 µM (inactive)
[35]
  GI50: > 100 µM (inactive)
[36]
  GI50: > 100 µM (inactive)
[37]
  GI50: > 100 µM (inactive)
[38]
  GI50: > 100 µM (inactive)
[39]
  GI50: > 100 µM (inactive)
[40]
  GI50: > 100 µM (inactive)
[41]
  GI50: 97.9 µM (inactive)
[42]
  GI50: > 100 µM (inactive)
[43]
  GI50: > 100 µM (inactive)
[44]
  GI50: > 100 µM (inactive)
[45]
  GI50: > 20.6 µM (inactive)
[46]
  GI50: > 100 µM (inactive)
[47]
  GI50: > 100 µM (inactive)
[48]
  GI50: > 100 µM (inactive)
[49]
  GI50: > 100 µM (inactive)
[50]
  GI50: > 100 µM (inactive)
[51]
  GI50: > 100 µM (inactive)
[52]
  GI50: > 100 µM (inactive)
[53]
  GI50: > 100 µM (inactive)
[54]
  GI50: > 100 µM (inactive)
[55]
  GI50: > 100 µM (inactive)
[56]
  GI50: > 100 µM (inactive)
[57]
  GI50: > 100 µM (inactive)
[58]
  GI50: > 100 µM (inactive)

## CC(SC(=O)Nc1ccc(/N=N/c2ccccc2)cc1)C(=O)O (stereo not drawn)
[2]
  GI50: > 100 µM (inactive)
[3]
  GI50: 56.4 µM (inactive)
[5]
  GI50: > 100 µM (inactive)
[59]
  GI50: > 100 µM (inactive)
[60]
  GI50: 98.4 µM (inactive)
[8]
  GI50: > 100 µM (inactive)
[9]
  GI50: > 100 µM (inactive)
[10]
  GI50: 73.5 µM (inactive)
[11]
  GI50: > 100 µM (inactive)
[12]
  GI50: 68.7 µM (inactive)
[13]
  GI50: 68.4 µM (inactive)
[14]
  GI50: 58.1 µM (inactive)
[15]
  GI50: 17.3 µM (inactive)
[16]
  GI50: 56.4 µM (inactive)
[17]
  GI50: 54.3 µM (inactive)
[18]
  GI50: > 100 µM (inactive)
[19]
  GI50: 57 µM (inactive)
[20]
  GI50: 34 µM (inactive)
[61]
  GI50: > 100 µM (inactive)
[24]
  GI50: > 100 µM (inactive)
[25]
  GI50: > 100 µM (inactive)
[26]
  GI50: > 100 µM (inactive)
[27]
  GI50: 79.8 µM (inactive)
[28]
  GI50: > 100 µM (inactive)
[29]
  GI50: > 100 µM (inactive)
[31]
  GI50: > 100 µM
[34]
  GI50: > 100 µM (inactive)
[35]
  GI50: 6.4 µM (inactive)
[36]
  GI50: 68.4 µM (inactive)
[37]
  GI50: > 100 µM (inactive)
[38]
  GI50: 38.6 µM (inactive)
[39]
  GI50: > 100 µM (inactive)
[40]
  GI50: > 100 µM (inactive)
[41]
  GI50: > 100 µM (inactive)
[62]
  GI50: > 100 µM (inactive)
[43]
  GI50: 36 µM (inactive)
[44]
  GI50: 88.5 µM (inactive)
[45]
  GI50: 49 µM (inactive)
[46]
  GI50: > 100 µM (inactive)
[47]
  GI50: > 100 µM (inactive)
[63]
  GI50: 48.6 µM (inactive)
[48]
  GI50: > 100 µM (inactive)
[49]
  GI50: 98.6 µM (inactive)
[51]
  GI50: 24.3 µM (inactive)
[52]
  GI50: > 100 µM (inactive)
[53]
  GI50: 28.8 µM (inactive)
[54]
  GI50: > 100 µM (inactive)
[55]
  GI50: 57.9 µM (inactive)
[64]
  GI50: > 100 µM (inactive)
[56]
  GI50: > 100 µM (inactive)
